ChEMBL document CHEMBL1201862, “PubChem BioAssay data set” (2004)
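Step 1: Grow cells in 96-well plates. Step 2: Expose to compound for 48 hours at 5 concentrations. Step 3: Interpolate endpoints linearly; if unreached, use highest concentration. GI50 is the concentration that inhibits growth by half.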 The source made the active and inactive calls. Rule as the data show it: active = GI50 up to about 1.1 µM and inactive = higher.

Tests used:
Assay in all cases: NCI tumour cell line growth inhibition, 48 h
SK-MEL-2 = system: SK-MEL-2
DMS-114 = system: DMS-114
TK-10 = system: TK-10
786-0 = system: 786-0
UACC-257 = system: UACC-257
CCRF-CEM = system: CCRF-CEM
A549 = system: A549
MOLT-4 = system: MOLT-4
SNB-19 = system: SNB-19
U-251 = system: U-251
OVCAR-5 = system: OVCAR-5
UACC-62 = system: UACC-62
SF-295 = system: SF-295
NCI-H23 = system: NCI-H23
HOP-62 = system: HOP-62
NCI-H460 = system: NCI-H460

Measured: GI50

C/C(=N\OCC(O)CNC(C)C)c1ccc2c(c1)NC(=O)CS2 (stereo not given)
inactive: SK-MEL-2 > 100 µM | DMS-114 > 100 µM | TK-10 > 100 µM | 786-0 > 100 µM | UACC-257 > 100 µM | CCRF-CEM > 100 µM | A549 > 100 µM | MOLT-4 > 100 µM | SNB-19 > 100 µM | U-251 > 100 µM | OVCAR-5 > 100 µM | UACC-62 > 100 µM | SF-295 > 100 µM | NCI-H23 > 100 µM | HOP-62 > 100 µM | NCI-H460 > 100 µM

CC(C)(c1ccccc1)c1ccc(Oc2ccc(C#N)c(C#N)c2)cc1
inactive: SK-MEL-2 > 10 µM | DMS-114 4.98 µM | TK-10 > 10 µM | 786-0 > 10 µM | UACC-257 > 10 µM | CCRF-CEM 56.5 µM | A549 27 µM | MOLT-4 28.5 µM | SNB-19 34.6 µM | U-251 99.8 µM | OVCAR-5 > 10 µM | UACC-62 > 10 µM | SF-295 4.47 µM | NCI-H23 25 µM | HOP-62 > 10 µM | NCI-H460 > 10 µM

Cc1cn(Cc2ccccc2CCO)c(=S)[nH]c1=O
inactive: SK-MEL-2 > 100 µM | DMS-114 > 100 µM | TK-10 > 100 µM | 786-0 > 100 µM | UACC-257 > 100 µM | CCRF-CEM > 100 µM | A549 > 100 µM | MOLT-4 > 100 µM | SNB-19 > 100 µM | U-251 > 100 µM | OVCAR-5 > 100 µM | UACC-62 > 100 µM | SF-295 > 100 µM | NCI-H23 > 100 µM | HOP-62 > 100 µM | NCI-H460 > 100 µM

CC(=O)OCC1OC(N2C(=O)C(=O)c3cc(C)ccc32)C(OC(C)=O)C(OC(C)=O)C1OC(C)=O (stereo not given)
inactive: SK-MEL-2 > 100 µM | DMS-114 > 100 µM | TK-10 > 100 µM | 786-0 38.9 µM | UACC-257 > 100 µM | CCRF-CEM 49.5 µM | A549 > 100 µM | MOLT-4 29 µM | SNB-19 > 100 µM | U-251 > 100 µM | OVCAR-5 > 100 µM | UACC-62 37.4 µM | SF-295 > 100 µM | NCI-H23 52.1 µM | HOP-62 > 100 µM | NCI-H460 > 100 µM

O=C1C2C3CCC(C2C(=O)N1CO)C1C2C(=O)N(CO)C(=O)C2C31 (stereo not given)
inactive: SK-MEL-2 36 µM | DMS-114 25.6 µM | TK-10 > 100 µM | 786-0 43.3 µM | UACC-257 > 100 µM | CCRF-CEM 19.1 µM | A549 31 µM | MOLT-4 25.1 µM | SNB-19 > 100 µM | U-251 > 40.3 µM | OVCAR-5 > 100 µM | UACC-62 53.1 µM | SF-295 > 64.9 µM | NCI-H23 > 87.9 µM | HOP-62 > 100 µM | NCI-H460 22.7 µM
